ChEMBL document CHEMBL1201862, “PubChem BioAssay data set” (2004)
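48-hour exposure; five concentrations; linearly interpolated endpoints. GI50 marks 50% less growth.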 Activity calls are given as the source filed them. No stated cut-off is given here; in the data, active = GI50 up to about 1.1 µM and inactive = higher.

Columns and labels:
Experiment in all cases: DTP human tumour cell line panel, 48 h
K562 = system: K562
IGROV-1 = system: IGROV-1
NCI-H226 = system: NCI-H226
SK-MEL-28 = system: SK-MEL-28
SNB-75 = system: SNB-75
SW-620 = system: SW-620
HOP-92 = system: HOP-92
M14 = system: M14
HCT-116 = system: HCT-116
HCT-15 = system: HCT-15
OVCAR-4 = system: OVCAR-4
MDA-MB-231 = system: MDA-MB-231
A498 = system: A498
HT-29 = system: HT-29
MOLT-4 = system: MOLT-4
RXF 393 = system: RXF 393
T47D = system: T47D
HCC 2998 = system: HCC 2998
HOP-62 = system: HOP-62
COLO 205 = system: COLO 205
RPMI-8226 = system: RPMI-8226
Hs-578T = system: Hs-578T
MDA-N = system: MDA-N
PC-3 = system: PC-3
SK-OV-3 = system: SK-OV-3
SN12C = system: SN12C
BT-549 = system: BT-549
CCRF-CEM = system: CCRF-CEM
SK-MEL-2 = system: SK-MEL-2
786-0 = system: 786-0
LOX IMVI = system: LOX IMVI
NCI-H460 = system: NCI-H460
OVCAR-5 = system: OVCAR-5
TK-10 = system: TK-10
SF-268 = system: SF-268
NCI-H23 = system: NCI-H23
NCI/ADR-RES = system: NCI/ADR-RES
SF-295 = system: SF-295
UACC-62 = system: UACC-62
KM12 = system: KM12
U-251 = system: U-251
A549 = system: A549
SNB-19 = system: SNB-19
MDA-MB-435 = system: MDA-MB-435
OVCAR-8 = system: OVCAR-8
SK-MEL-5 = system: SK-MEL-5
Malme-3M = system: Malme-3M
UACC-257 = system: UACC-257
CAKI-1 = system: CAKI-1
DU-145 = system: DU-145
UO-31 = system: UO-31
OVCAR-3 = system: OVCAR-3
ACHN = system: ACHN
NCI-H522 = system: NCI-H522
SR = system: SR

O=C1CCCN1C(=O)CS(=O)(=O)c1ccccc1
GI50 (K562): > 100 µM (inactive) | GI50 (IGROV-1): > 100 µM (inactive) | GI50 (NCI-H226): > 100 µM (inactive) | GI50 (SK-MEL-28): > 100 µM (inactive) | GI50 (SNB-75): > 100 µM (inactive) | GI50 (SW-620): > 100 µM (inactive) | GI50 (HOP-92): > 100 µM (inactive) | GI50 (M14): > 100 µM (inactive) | GI50 (HCT-116): > 100 µM (inactive) | GI50 (HCT-15): > 100 µM | GI50 (OVCAR-4): > 100 µM (inactive) | GI50 (MDA-MB-231): > 100 µM (inactive) | GI50 (A498): > 100 µM (inactive) | GI50 (HT-29): > 100 µM (inactive) | GI50 (MOLT-4): > 100 µM (inactive) | GI50 (RXF 393): > 100 µM (inactive) | GI50 (T47D): > 100 µM (inactive) | GI50 (HCC 2998): > 100 µM (inactive) | GI50 (HOP-62): > 100 µM (inactive) | GI50 (COLO 205): > 100 µM (inactive) | GI50 (RPMI-8226): > 100 µM (inactive) | GI50 (Hs-578T): > 100 µM (inactive) | GI50 (MDA-N): > 100 µM (inactive) | GI50 (PC-3): > 100 µM (inactive) | GI50 (SK-OV-3): > 100 µM (inactive) | GI50 (SN12C): > 100 µM (inactive) | GI50 (BT-549): > 100 µM (inactive) | GI50 (CCRF-CEM): > 100 µM (inactive) | GI50 (SK-MEL-2): > 100 µM (inactive) | GI50 (786-0): > 100 µM (inactive) | GI50 (LOX IMVI): > 100 µM (inactive) | GI50 (NCI-H460): > 100 µM (inactive) | GI50 (OVCAR-5): > 100 µM (inactive) | GI50 (TK-10): > 100 µM (inactive) | GI50 (SF-268): > 100 µM (inactive) | GI50 (NCI-H23): > 100 µM (inactive) | GI50 (NCI/ADR-RES): > 100 µM (inactive) | GI50 (SF-295): > 100 µM (inactive) | GI50 (UACC-62): > 100 µM (inactive) | GI50 (KM12): > 100 µM (inactive) | GI50 (U-251): > 100 µM (inactive) | GI50 (A549): > 100 µM (inactive) | GI50 (SNB-19): > 100 µM (inactive) | GI50 (MDA-MB-435): > 100 µM (inactive) | GI50 (OVCAR-8): > 100 µM (inactive) | GI50 (SK-MEL-5): > 100 µM (inactive) | GI50 (Malme-3M): > 100 µM (inactive) | GI50 (UACC-257): > 100 µM (inactive) | GI50 (CAKI-1): > 100 µM (inactive) | GI50 (DU-145): > 100 µM (inactive) | GI50 (UO-31): > 100 µM (inactive) | GI50 (OVCAR-3): > 100 µM (inactive) | GI50 (ACHN): > 100 µM (inactive) | GI50 (NCI-H522): > 100 µM (inactive) | GI50 (SR): > 100 µM (inactive)
